Like-named read-outs stand apart in the source and are kept apart here.
Legend:
Type in all cases: in vivo
[1] = tested on: Dermacentor variabilis (American dog tick); experiment: Contact activity against the larval American dog tick (Table II); conditions: topical
Procedure: This test is designed to evaluate the contact activity of test compounds against the American dog tick. Test compounds are dissolved in 100% acetone to 1000, 300, 100, 10, 1 and 0.1 ppm. 100 μL of each of these dilutions is added to the bottom of a 20 mL glass scintillation vial with a pipettor. The vial is allowed to dry under a fume hood for 15 minutes. The vial is then turned in its side, and 250 μL of each dilution is applied to the sides of the vial. The vial is placed on a rolling machine and allowed to roll under the hood, coating the sides of the vial, until the acetone completely evaporates. The bottom of the vial measures 4.909 cm^2 and the sides measure 4.5 cm high×8.8 cm around, so that the total coated area of the scintillation vial measures 44.51 cm^2. The amount of test compound applied by each dilution equals 7.86, 2.36, 0.79, 0.079, 0.0079 and 0.00079 μg/cm^2, respectively. Unfed larval dog ticks are counted into the scintillation vials with a slightly damp paintbrush. Ten ticks are placed in each vial. These tests are done in replicates of two or three so that there are 20 to 30 ticks per rate/compound. Mortality readings are taken 4 and 24 hours after placing the ticks in the vials. To read the test, the vial is placed under a magnifying glass and tapped gently. […] Percent mortality is then calculated for each treatment.

[2] = tested on: Bovicola spp. (biting louse); experiment: Activity against the adult biting louse (Table VI); conditions: dose 2.0 μg/cm^2
Procedure: This test is designed to evaluate the activity of test compounds against the biting louse. Test compounds are dissolved in 100% acetone to 300, 100 and 10 ppm. 100 μL of each of these dilutions is added to the bottom of a 20 mL glass scintillation vial with a pipettor. The vial is allowed to dry under a fume hood for 15 minutes. The bottom of the vial measures 4.909 cm^2. The amount of test compound applied by each dilution equals 6.1, 2.0 and 0.2 μg/cm^2, respectively. Included in all tests are two to three replications of untreated vials. Lice are collected from the host animal and are used within 4 hours. The lice are counted into the scintillation vials with a slightly damp paintbrush. Five adult lice are placed in each vial. These tests are done in replicates of two or three so that there are 10 to 15 lice per rate/compound. Mortality readings are taken at 2 and 4 hours after placing the lice in the vials. To read the test, the vial is placed under a magnifying glass. […] Percent mortality is then calculated for each treatment.

[3] = tested on: Ctenocephalides felis (cat flea); experiment: Contact activity against the adult cat flea (Table I); conditions: topical
Procedure: (§1) This test is designed to evaluate the contact activity of test compounds against the adult cat flea. Test compounds are dissolved in 100% acetone to 300, 100, 10 and 1 ppm. 100 μL of each of these dilutions is added to the bottom of a 20 mL glass scintillation vial with a pipettor. The vial is allowed to dry under a fume hood for 15 minutes. The bottom of the vial measures 4.909 cm^2. The amount of test compound applied by each dilution equals 6.2, 2.0, 0.2 and 0.02 μg/cm^2, respectively. Newly emerged adult cat fleas are anesthetized with CO2 to immobilize, and are counted into the scintillation vials with forceps. Five fleas are placed in each vial. These tests are done in replicates of two or three so that there are 10 to 15 fleas per rate/compound. Mortality readings are taken 4 and 24 hours after placing the fleas in the vials. […] Percent mortality is then calculated for each treatment.

[4] = tested on: Ctenocephalides felis (cat flea); experiment: whole plant or invertebrate; conditions: topical, 24 h, read-out: 24 Hour % Mortality
Procedure: as §1
This test evaluates the synergistic effect of piperonyl butoxide on the formula I compounds of this invention. Piperonyl butoxide (PBO) is added in an amount of 1.5% to a 1,000 ppm solution of a test compound in acetone. Dilutions are then made with acetone to provide solutions containing 300, 100, 10 and 1 ppm of the test compound and 0.45%, 0.15%, 0.015% and 0.0015% piperonyl butoxide, respectively. Solutions containing 1,000, 300, 100, 10 and 1 ppm of the test compound alone are used as the control. […]

[5] = tested on: adult, Pyrethroid-susceptible horn fly (Haematobia irritans); experiment: Adult pyrethroid-susceptible horn fly, treated filter paper (Table III); conditions: topical, 6 h, read-out: 6 Hour % Mortality
Procedure: Test doses are expressed as μg of test substance per cm^2 of filter paper.
1) Prepare solutions of test compound in acetone such that 800 or 1000 μL contains the amount necessary to obtain the desired dose rate.
2) Pipette 800 or 1000 μL of test solution onto filter paper.
3) Filter papers are dried under a fume hood.
4) When dry, filter papers are placed in the petri dish tops. Dishes are generally held about 24 hours before test organism is added.
5) Two- to five-day-old horn flies (pyrethroid-susceptible or -resistant) which have had two or more blood meals are used in the assay. Flies are collected into a small vial from the holding cage. Vials are then chilled in a freezer for about 4 minutes to immobilize the flies. Immobilized flies are then distributed to petri dish bottoms, 12 to 25 flies per dish, then dishes are closed and inverted.
6) As soon as the flies become mobile (about 5 minutes), they are examined to detect any flies that are dead or injured. This number is subtracted from total number of flies in the dish.
7) Petri dishes are held at room temperature and examined at the desired time intervals which might be 10 minutes to 6 hours.
8) All dead flies are recorded at each examination time. A fly is considered dead if it cannot walk even though it may still be moving.
10) Percent mortality at any time period is calculated using the following formula: […]
Number of dead flies-number dead @5 min/Total number of flies-number dead
Percent mortality is then corrected for control mortality using Abbot's formula.

[6] = tested on: Musca domestica (house fly); experiment: Activity against the adult house fly (Table V)
Procedure: This test is designed to evaluate the activity of test compounds against the house fly. Test compounds are dissolved in 100% acetone to 1000, 300, 100, 10 and 1 ppm. 100 μL of each of these dilutions is added to the bottom of a 20 mL glass scintillation vial with a pipettor. The vial is allowed to dry under a fume hood for 15 minutes. The vial is then turned on its side, and 250 μL of each dilution is applied to the sides of the vial. The vial is placed on a rolling machine and allowed to roll under the hood, coating the sides of the vial, until the acetone completely evaporates. The bottom of the vial measures 4.909 cm^2 and the sides measure 4.5 cm high×8.8 cm around, so that the total coated area of the scintillation vial measures 44.51 cm^2. The amount of test compound applied by each dilution equals 7.86, 2.36, 0.79, 0.079, and 0.0079 μg/cm^2, respectively. Included in all tests are two to three replications of untreated vials. Adult house flies which are five to seven days old are chilled in a freezer for five minutes to immobilize, and are placed on a sorting platform which provides a steady stream of CO2 to keep the flies immobile. Five flies are counted into each scintillation vial with forceps. The top of the vial is plugged with a wad of sheet cotton sufficient to contain the flies. These tests are done in replicates of two to four so that there are 10 to 20 flies per rate/compound. Mortality readings are taken 1 and 4 hours after placing the flies in the vials. Flies which are unable to stand when disturbed are considered dead. Percent mortality is then calculated for each treatment.

[7] = 4 hours, dose 0.079 μg/cm^2, read-out: 4 Hour % Mortality
[8] = 4 hours, dose 0.790 μg/cm^2, read-out: 4 Hour % Mortality
[9] = 4 hours, dose 2.360 μg/cm^2, read-out: 4 Hour % Mortality
[10] = 4 hours, dose 7.860 μg/cm^2, read-out: 4 Hour % Mortality
[11] = 24 hours, dose 0.079 μg/cm^2, read-out: 24 Hour % Mortality
[12] = 24 hours, dose 0.790 μg/cm^2, read-out: 24 Hour % Mortality
[13] = 24 hours, dose 2.360 μg/cm^2, read-out: 24 Hour % Mortality
[14] = 24 hours, dose 7.860 μg/cm^2, read-out: 24 Hour % Mortality
[15] = 4 h, read-out: 4 Hour % Mortality
[16] = 24 h, read-out: 24 Hour % Mortality
[17] = 1 h, read-out: 1 Hour % Mortality

For F/C(=C\Cc1ccc(F)c(Oc2ccccc2)c1)C(c1ccc(Cl)cc1)C1CC1 (stereo not drawn) [Compound 5, 1-[1-(p-Chlorophenyl)-2-fluoro-4-(4-fluoro-3-phenoxyphenyl)-2-butenyl]cyclopropane, (Z)-], the mortality at 0.00079 µg/cm2 ([1]; 4 hours, dose 0.00079 μg/cm^2, read-out: 4 Hour % Mortality) was 100%, the mortality at 0.0079 µg/cm2 ([1]; 4 hours, dose 0.0079 μg/cm^2, read-out: 4 Hour % Mortality) was 100% and the mortality at 0.079 µg/cm2 [1, 7] was 100%. It also gave a mortality at 0.79 µg/cm2 [1, 8] of 100%, a mortality at 2.36 µg/cm2 [1, 9] of 100% and a mortality at 7.86 µg/cm2 [1, 10] of 100%. It also gave a mortality at 0.00079 µg/cm2 ([1]; 24 hours, dose 0.00079 μg/cm^2, read-out: 24 Hour % Mortality) of 100%, a mortality at 0.0079 µg/cm2 ([1]; 24 hours, dose 0.0079 μg/cm^2, read-out: 24 Hour % Mortality) of 100% and a mortality at 0.079 µg/cm2 [1, 11] of 100%. The mortality at 0.79 µg/cm2 [1, 12] was 100%, the mortality at 2.36 µg/cm2 [1, 13] was 100% and the mortality at 7.86 µg/cm2 [1, 14] was 100%. The “2 Hour % Mortality” value [2] was 92%, the mortality at 0.02 µg/cm2 [3, 15] was 34% and the mortality at 0.2 µg/cm2 [3, 15] was 39%. For the same compound, the mortality at 2 µg/cm2 [3, 15] was 79%, the mortality at 6.2 µg/cm2 ([3]; 4 hours, dose 6.20 μg/cm^2, read-out: 4 Hour % Mortality) was 98% and the mortality at 0.02 µg/cm2 [3, 16] was 69%. For the same compound, the mortality at 0.2 µg/cm2 [3, 16] was 81%, the mortality at 2 µg/cm2 [4] was 100% and the mortality at 6.2 µg/cm2 [4] was 100%.
In the case of F/C(=C\Cc1ccc(F)c(Oc2ccc(F)cc2)c1)C(c1ccc(Cl)cc1)C1CC1 (racemic) [Compound 18], the mortality at 0.625 µg/cm2 [5] is reported as 4%, the mortality at 1.25 µg/cm2 [5] is reported as 36% and the mortality at 2.5 µg/cm2 [5] is reported as 94%. For the same compound, the mortality at 5 µg/cm2 [5] was 99% and the mortality at 10 µg/cm2 [5] was 100%.
CCOc1ccc(C(/C(F)=C/Cc2ccc(F)c(Oc3ccccc3)c2)C2CC2)cc1 (stereo not drawn) [Compound 10, 1-[1-(p-Ethoxyphenyl)-2-fluoro-4-(4-fluoro-3-phenoxyphenyl)-2-butenyl]cyclopropane, (Z)-] showed a mortality at 0.079 µg/cm2 [1, 7] of 100%, a mortality at 0.79 µg/cm2 [1, 8] of 100% and a mortality at 2.36 µg/cm2 [1, 9] of 100%. For the same compound, the mortality at 7.86 µg/cm2 [1, 10] was 100%, the mortality at 0.079 µg/cm2 [1, 11] was 100% and the mortality at 0.79 µg/cm2 [1, 12] was 100%. For the same compound, the mortality at 2.36 µg/cm2 [1, 13] was 100%, the mortality at 7.86 µg/cm2 [1, 14] was 100% and the mortality at 0.079 µg/cm2 [6, 17] was 20%. For the same compound, the mortality at 0.79 µg/cm2 [6, 17] was 20%, the mortality at 2.36 µg/cm2 [6, 17] was 40% and the mortality at 0.079 µg/cm2 [6, 15] was 60%. The mortality at 2.36 µg/cm2 [6, 15] was 100%, the mortality at 0.79 µg/cm2 [6, 8] was 75% and the mortality at 0.02 µg/cm2 [3, 15] was 10%. For the same compound, the mortality at 0.2 µg/cm2 [3, 15] was 68%, the mortality at 2 µg/cm2 [3, 15] was 70% and the mortality at 6.2 µg/cm2 [3, 15] was 100%. It also gave a mortality at 0.02 µg/cm2 [3, 16] of 20%, a mortality at 0.2 µg/cm2 [3, 16] of 95% and a mortality at 2 µg/cm2 [3, 16] of 100%. For the same compound, the mortality at 6.2 µg/cm2 [3, 16] was 100%.
